Assays:
Format in all cases: physicochemical
[1] = Stability of third liquid vitamin formulation (vitamin K3, Example 1), stored at 40° C., HPLC
Description: (§1) The stability of each formulation in the composition each was determined over a 4 weeks period. The concentration of vitamin in the formulation was analysed using standard analytical methods (high performance liquid chromatography). The formulations were stored at 40° C. over the test period.

[2] = Stability of vitamin A in poultry feed (Example 3), 20° C., 80% humidity, HPLC; conditions: four weeks
Description: A standard poultry feed comprising a digestible carbohydrate, a source of fat, a source of amino acid, vitamins and minerals as detailed in Table 3.1 below was used in this example Two sources of vitamin A are compared. Mixture A contained the vitamin composition in the liquid form according to the present invention whilst mixture B contained the conventional powdered vitamin composition. The vitamin pre-mixes were added to the feed. The stability of vitamin A in both feed samples was determined over a four weeks period. The feeds were stored at 20° C. and under 80% humidity. The concentration of vitamin A in the feed was measured using conventional analytical methods (high performance liquid chromatography).

[3] = Stability of first liquid vitamin formulation (Example 1), stored at 40° C., HPLC; conditions: for CONC at T = 0: immediately after preparation; for CONC at T = 2 weeks / CONC at T = 4 weeks: stored at 40° C.
Description: as §1

[4] = Stability of second liquid vitamin formulation (Example 1), stored at 40° C., HPLC; conditions: for CONC at T = 0: immediately after preparation; for CONC at T = 1 week / CONC at T = 2 weeks / CONC at T = 3 weeks / CONC at T = 4 weeks: stored at 40° C.
Description: as §1

Row | Molecule | CONC at T = 0 [3] | CONC at T = 2 weeks [3] | CONC at T = 4 weeks [3] | CONC at T = 0 [4] | CONC at T = 1 week [4] | CONC at T = 2 weeks [4] | CONC at T = 3 weeks [4] | CONC at T = 4 weeks [4] | further results
1 | CC1=CC(=O)c2ccccc2C1=O [Vitamin K3, menadione] | – | – | – | – | – | – | – | – | Stability of vitamin K3 in the third liquid formulation (in words) ([1]; 40° C., 4 weeks): stable; CONC at T = 0 ([1]; third formulation, immediately after preparation): 2.00 g % g of solution; CONC at T = 2 weeks ([1]; third formulation, stored at 40° C., 2 weeks): 1.93 g % g of solution; CONC at T = 4 weeks ([1]; third formulation, stored at 40° C., 4 weeks): 1.92 g % g of solution
2 | Oil of Vitamin A | 120500 UI/g | 118500 UI/g | 120400 UI/g | – | – | – | – | – | Stability of vitamin A in feed, liquid pre-mix versus powdered pre-mix (in words) [2]: as stable in the feed containing the liquid pre-mix as in the conventional powdered pre-mix
3 | Cc1cc2nc3c(=O)[nH]c(=O)nc-3n(C[C@H](O)[C@H](O)[C@H](O)CO)c2cc1C [Vitamin B2, riboflavin] | – | – | – | 1 g % g of solution | 1.08 g % g of solution | 1.04 g % g of solution | 1.04 g % g of solution | 1.01 g % g of solution | –
4 | O=C(O)CCCC[C@@H]1SC[C@@H]2NC(=O)N[C@@H]21 [Vitamin H, biotine] | – | – | – | 0.021 g % g of solution | 0.022 g % g of solution | 0.02 g % g of solution | 0.021 g % g of solution | 0.021 g % g of solution | –
5 | Oil of Vitamin D3 | 56200 UI/g | 56160 UI/g | 52800 UI/g | – | – | – | – | – | –
6 | Oil of Vitamin E | 27.6% | 29.1% | 29.3% | – | – | – | – | – | –

More lines, main results first:

Row | CONC at T = 0 [3] | CONC at T = 2 weeks [3] | CONC at T = 4 weeks [3] | CONC at T = 0 [4] | CONC at T = 1 week [4] | CONC at T = 2 weeks [4] | CONC at T = 3 weeks [4] | CONC at T = 4 weeks [4] | Molecule | further results
7 | – | – | – | 2.63 g % g of solution | 2.64 g % g of solution | 2.65 g % g of solution | 2.64 g % g of solution | 2.69 g % g of solution | CC(C)(CO)[C@@H](O)C(=O)NCCCO [Vitamin B5, dexpanthénol] | –
8 | – | – | – | 8 g % g of solution | 7.98 g % g of solution | 7.8 g % g of solution | 7.85 g % g of solution | 8 g % g of solution | NC(=O)c1cccnc1 [Vitamin B3, niacinamide] | –
9 | – | – | – | 0.355 g % g of solution | 0.32 g % g of solution | 0.33 g % g of solution | 0.333 g % g of solution | 0.329 g % g of solution | Cc1ncc(CO)c(CO)c1O.OCl [Vitamin B6, pyridoxine chlorohydrate] | –
10 | 0.0202% | 0.0165% | 0.0157% | – | – | – | – | – | Vitamin B12 | –
